Test results: patent US20200331925A1, “HETEROCYCLIC COMPOUNDS FOR THE TREATMENT OF ABNORMAL CELLULAR PROLIFERATION” (G1 Therapeutics, Inc., priority 2018, published 2020)

Tests used:
Format in all cases: biochemical
CDK1/Cyclin B1 = CDK1/Cyclin B1 (Homo sapiens, UniProt P06493); assay: CDK1/Cyclin B1 kinase assay (Nanosyn, Caliper microfluidic); settings: 12-point dose-response, ATP at Km (40 μM), 3 hr
How it was run: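 Mobility-shift microfluidic kinase assay, 12-point dose-response in singlicate. Conditions: 0.08 nM enzyme, 40 μM ATP (Km), 1 μM peptide substrate, 3 hr incubation; staurosporine as reference.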

CDK2/Cyclin A = CDK2/Cyclin A (Homo sapiens, UniProt P24941); assay: CDK2/Cyclin A kinase assay (Nanosyn, Caliper microfluidic); settings: 12-point dose-response, ATP at Km (50 μM), 3 hr
How it was run: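 Caliper microfluidic mobility-shift read-out; 0.1 nM enzyme, 50 μM ATP (Km), 1 μM peptide substrate, 3 hr incubation. 12-point dose-response in singlicate; staurosporine as reference.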

CDK2/Cyclin E = CDK2/Cyclin E (Homo sapiens, UniProt P24941); assay: CDK2/Cyclin E kinase assay (Nanosyn, Caliper microfluidic); settings: 12-point dose-response, ATP at Km (100 μM), 3 hr
How it was run: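 Caliper microfluidic mobility-shift readout of phosphorylation of 1 μM substrate peptide by 0.15 nM enzyme at 100 μM ATP (stated as Km), 3 hr incubation. 12-point dose-response in singlicate, staurosporine as reference.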

CDK3/Cyclin E = CDK3/Cyclin E (Homo sapiens, UniProt Q00526); assay: CDK3/Cyclin E kinase assay (Nanosyn, Caliper microfluidic); settings: 12-point dose-response, ATP at Km (400 μM), 3 hr
How it was run: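 Caliper microfluidic mobility-shift read-out with 1 nM enzyme, 400 μM ATP (stated as Km) and 1 μM peptide substrate, 3 hr incubation. Compounds run as 12-point dose-response in singlicate.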

CDK4/Cyclin D1 = CDK4/Cyclin D1 (Homo sapiens, UniProt P11802); assay: CDK4/Cyclin D1 kinase assay (Nanosyn, Caliper microfluidic); settings: 12-point dose-response, ATP at Km (200 μM), 3 hr; Table 4
How it was run: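 Caliper microfluidic mobility-shift read-out, 12-point dose-response in singlicate. 1 nM enzyme, 200 μM ATP (Km), 1 μM peptide substrate, 3 hr incubation; staurosporine as reference.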

CDK5/p35 = CDK5/p35 (Homo sapiens, UniProt Q00535); assay: CDK5/p35 kinase assay (Nanosyn, Caliper microfluidic); settings: 12-point dose-response, ATP at Km (20 μM), 3 hr
How it was run: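 Microfluidic mobility-shift kinase assay with 0.05 nM CDK5/p35, 20 μM ATP (Km) and 1 μM peptide substrate, 3 hr incubation. Compounds tested as 12-point dose–response in singlicate; staurosporine as reference.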

CDK5/p25 = CDK5/p25 (Homo sapiens, UniProt Q00535); assay: CDK5/p25 kinase assay (Nanosyn, Caliper microfluidic); settings: 12-point dose-response, ATP at Km (20 μM), 3 hr
How it was run: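 Caliper microfluidic mobility-shift assay, 12-point dose-response in singlicate. CDK5/p25 at 0.1 nM with 20 μM ATP (Km) and 1 μM peptide substrate. Incubation 3 hr.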

CDK6/Cyclin D3 = CDK6/Cyclin D3 (Homo sapiens, UniProt Q00534); assay: CDK6/Cyclin D3 kinase assay (Nanosyn, Caliper microfluidic); settings: 12-point dose-response, ATP at Km (300 μM), 3 hr
How it was run: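 Caliper microfluidic assay with 2 nM enzyme, 300 μM ATP and 1 μM phosphoacceptor peptide, incubated for 3 hr. Compounds were run as 12-point dose-response curves in singlicate.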

CDK7/Cyclin H = CDK7/Cyclin H (Homo sapiens, UniProt P50613); assay: CDK7/Cyclin H kinase assay (Nanosyn, Caliper microfluidic); settings: 12-point dose-response, ATP at Km (50 μM), 17 hr
How it was run: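 Caliper microfluidic mobility-shift assay with 10 nM CDK7/Cyclin H, 50 μM ATP (Km) and 1 μM peptide substrate, incubated 17 hr. Compounds run in 12-point dose-response, singlicate.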

CDK9/Cyclin T = CDK9/Cyclin T (Homo sapiens, UniProt P50750); assay: CDK9/Cyclin T kinase assay (Nanosyn, Caliper microfluidic); settings: 12-point dose-response, ATP at Km (10 μM), 17 hr; Table 5
How it was run: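 Caliper microfluidic mobility-shift read-out, 12-point dose-response in singlicate at ATP Km with 1 μM peptide substrate; staurosporine reference.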

CDK9/Cyclin T, sequence (P50750 whole entry): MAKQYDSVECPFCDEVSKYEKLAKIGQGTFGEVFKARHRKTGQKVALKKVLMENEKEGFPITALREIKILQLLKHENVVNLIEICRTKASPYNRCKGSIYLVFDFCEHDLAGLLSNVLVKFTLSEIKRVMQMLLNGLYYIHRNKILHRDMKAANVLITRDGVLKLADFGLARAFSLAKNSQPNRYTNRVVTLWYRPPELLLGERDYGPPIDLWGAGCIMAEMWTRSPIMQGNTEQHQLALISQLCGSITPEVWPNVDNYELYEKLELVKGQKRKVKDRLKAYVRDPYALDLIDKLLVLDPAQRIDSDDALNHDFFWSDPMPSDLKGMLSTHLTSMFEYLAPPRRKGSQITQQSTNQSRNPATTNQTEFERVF
CDK9/Cyclin T, sequence (O60563 whole entry partner): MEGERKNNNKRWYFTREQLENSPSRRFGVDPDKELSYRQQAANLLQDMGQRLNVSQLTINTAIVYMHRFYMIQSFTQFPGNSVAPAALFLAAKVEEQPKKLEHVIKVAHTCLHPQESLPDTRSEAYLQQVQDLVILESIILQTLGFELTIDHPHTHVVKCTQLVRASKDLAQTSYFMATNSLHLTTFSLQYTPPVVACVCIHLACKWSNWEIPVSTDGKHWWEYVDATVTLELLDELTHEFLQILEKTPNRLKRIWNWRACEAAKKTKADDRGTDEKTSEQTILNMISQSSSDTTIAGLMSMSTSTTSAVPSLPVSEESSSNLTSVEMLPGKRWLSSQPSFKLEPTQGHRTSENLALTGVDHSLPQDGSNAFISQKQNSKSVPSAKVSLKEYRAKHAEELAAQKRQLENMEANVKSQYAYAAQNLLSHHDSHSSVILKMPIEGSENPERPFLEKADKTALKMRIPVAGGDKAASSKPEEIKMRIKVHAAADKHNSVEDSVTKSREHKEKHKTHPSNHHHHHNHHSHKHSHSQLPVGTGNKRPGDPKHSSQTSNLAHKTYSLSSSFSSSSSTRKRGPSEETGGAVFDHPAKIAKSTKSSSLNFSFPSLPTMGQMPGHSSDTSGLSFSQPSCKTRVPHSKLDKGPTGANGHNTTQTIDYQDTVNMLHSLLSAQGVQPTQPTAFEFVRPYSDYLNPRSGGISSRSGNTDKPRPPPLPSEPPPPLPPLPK
CDK1/Cyclin B1, sequence (P06493 whole entry): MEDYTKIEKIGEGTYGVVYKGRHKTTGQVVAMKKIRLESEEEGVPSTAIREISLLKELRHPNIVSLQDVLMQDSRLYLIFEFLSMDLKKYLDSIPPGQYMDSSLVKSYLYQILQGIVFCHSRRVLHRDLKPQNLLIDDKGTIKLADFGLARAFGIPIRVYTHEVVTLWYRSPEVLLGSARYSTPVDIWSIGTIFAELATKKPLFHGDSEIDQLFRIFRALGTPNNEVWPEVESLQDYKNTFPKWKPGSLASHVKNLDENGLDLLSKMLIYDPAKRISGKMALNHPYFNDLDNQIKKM
CDK1/Cyclin B1, sequence (P14635 whole entry partner): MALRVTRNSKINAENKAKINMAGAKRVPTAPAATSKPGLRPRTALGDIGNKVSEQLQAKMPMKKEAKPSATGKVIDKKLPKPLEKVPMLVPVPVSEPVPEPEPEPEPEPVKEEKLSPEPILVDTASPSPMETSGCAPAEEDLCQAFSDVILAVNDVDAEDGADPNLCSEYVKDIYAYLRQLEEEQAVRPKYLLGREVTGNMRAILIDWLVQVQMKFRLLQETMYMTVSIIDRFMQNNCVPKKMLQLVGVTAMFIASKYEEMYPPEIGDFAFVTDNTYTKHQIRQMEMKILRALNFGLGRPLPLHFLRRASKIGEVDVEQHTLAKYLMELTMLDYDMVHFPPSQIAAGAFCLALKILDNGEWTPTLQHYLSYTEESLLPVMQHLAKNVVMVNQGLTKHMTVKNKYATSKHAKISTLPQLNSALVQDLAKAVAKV
CDK6/Cyclin D3, sequence (Q00534 whole entry): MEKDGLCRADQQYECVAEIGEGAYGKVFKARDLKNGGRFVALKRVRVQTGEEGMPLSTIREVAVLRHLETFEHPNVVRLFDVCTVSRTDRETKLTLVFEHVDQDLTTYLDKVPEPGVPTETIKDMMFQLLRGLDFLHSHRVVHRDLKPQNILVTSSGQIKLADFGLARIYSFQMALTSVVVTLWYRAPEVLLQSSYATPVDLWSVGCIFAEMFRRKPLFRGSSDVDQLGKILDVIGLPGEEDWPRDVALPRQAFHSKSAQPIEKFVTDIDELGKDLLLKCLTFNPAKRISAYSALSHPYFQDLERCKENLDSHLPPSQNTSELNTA
CDK6/Cyclin D3, sequence (P30281 whole entry partner): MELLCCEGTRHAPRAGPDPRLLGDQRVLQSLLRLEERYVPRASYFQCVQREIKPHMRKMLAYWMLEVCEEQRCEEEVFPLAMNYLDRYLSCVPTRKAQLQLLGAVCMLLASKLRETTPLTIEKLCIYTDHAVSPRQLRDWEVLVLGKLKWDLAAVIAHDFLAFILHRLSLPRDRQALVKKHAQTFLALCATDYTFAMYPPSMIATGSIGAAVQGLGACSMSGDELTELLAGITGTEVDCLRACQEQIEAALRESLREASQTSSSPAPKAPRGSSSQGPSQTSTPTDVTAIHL
CDK5/p25, sequence (Q00535 whole entry): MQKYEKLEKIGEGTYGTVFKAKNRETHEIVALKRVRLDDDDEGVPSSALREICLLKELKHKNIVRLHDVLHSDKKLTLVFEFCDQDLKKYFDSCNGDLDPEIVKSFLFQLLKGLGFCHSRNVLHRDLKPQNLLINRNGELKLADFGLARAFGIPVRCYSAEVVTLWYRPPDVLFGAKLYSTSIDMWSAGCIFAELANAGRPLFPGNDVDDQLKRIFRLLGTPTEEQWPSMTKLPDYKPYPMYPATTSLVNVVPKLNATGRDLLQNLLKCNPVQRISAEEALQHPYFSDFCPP
CDK5/p25, sequence (Q15078 99-307 partner limits assumed): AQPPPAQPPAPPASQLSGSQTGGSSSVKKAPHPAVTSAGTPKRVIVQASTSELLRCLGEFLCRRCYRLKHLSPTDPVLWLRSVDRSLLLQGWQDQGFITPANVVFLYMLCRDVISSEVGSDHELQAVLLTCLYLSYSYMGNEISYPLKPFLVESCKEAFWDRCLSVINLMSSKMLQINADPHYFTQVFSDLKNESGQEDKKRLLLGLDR
CDK5/p35, sequence (Q00535 whole entry): as the sequence (Q00535 whole entry) above
CDK5/p35, sequence (Q15078 whole entry partner): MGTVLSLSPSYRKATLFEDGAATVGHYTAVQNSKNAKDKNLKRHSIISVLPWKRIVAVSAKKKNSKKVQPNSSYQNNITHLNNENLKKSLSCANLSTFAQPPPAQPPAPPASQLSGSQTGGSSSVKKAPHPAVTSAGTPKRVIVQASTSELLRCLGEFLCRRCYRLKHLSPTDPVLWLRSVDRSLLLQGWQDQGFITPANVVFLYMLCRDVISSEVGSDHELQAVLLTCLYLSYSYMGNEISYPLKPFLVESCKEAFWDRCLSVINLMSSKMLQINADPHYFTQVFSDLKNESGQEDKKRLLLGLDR
CDK4/Cyclin D1, sequence (P11802 whole entry): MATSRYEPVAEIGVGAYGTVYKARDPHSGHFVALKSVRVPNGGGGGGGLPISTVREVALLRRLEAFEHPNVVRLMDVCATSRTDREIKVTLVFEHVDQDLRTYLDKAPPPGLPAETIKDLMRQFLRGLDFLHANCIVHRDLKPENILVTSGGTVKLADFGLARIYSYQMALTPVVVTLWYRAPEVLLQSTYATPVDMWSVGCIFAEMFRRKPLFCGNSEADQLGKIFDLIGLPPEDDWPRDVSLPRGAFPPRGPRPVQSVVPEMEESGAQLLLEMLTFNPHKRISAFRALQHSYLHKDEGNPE
CDK4/Cyclin D1, sequence (P24385 whole entry partner): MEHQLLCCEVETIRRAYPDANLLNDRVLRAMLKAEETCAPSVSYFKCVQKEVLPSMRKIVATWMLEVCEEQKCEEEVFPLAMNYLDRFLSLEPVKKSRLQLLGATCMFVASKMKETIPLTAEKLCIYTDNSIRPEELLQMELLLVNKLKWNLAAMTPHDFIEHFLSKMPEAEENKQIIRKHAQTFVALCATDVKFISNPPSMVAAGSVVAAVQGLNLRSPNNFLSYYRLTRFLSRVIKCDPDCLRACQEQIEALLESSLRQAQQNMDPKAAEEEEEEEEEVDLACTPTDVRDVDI

IC50 (CDK1/Cyclin B1) [µM]	IC50 (CDK2/Cyclin A) [µM]	IC50 (CDK2/Cyclin E) [µM]	IC50 (CDK3/Cyclin E) [µM]	IC50 (CDK4/Cyclin D1) [µM]	IC50 (CDK5/p35) [µM]	IC50 (CDK5/p25) [µM]	IC50 (CDK6/Cyclin D3) [µM]	IC50 (CDK7/Cyclin H) [µM]	IC50 (CDK9/Cyclin T) [µM]	Compound
1.7	0.42	0.26	0.64	0.67	0.74	0.66	2	3.6	0.6	C[C@H]1CC[C@H](Nc2ncc3cc4n(c3n2)C2(CCCCC2)CN=C4)CC1 [Compound 54, N-((1r,4r)-4-methylcyclohexyl)-8′H-spiro[cyclohexane-1,9′-pyrazino[1′,2′:1,5]pyrrolo[2,3-d]pyrimidin]-2′-amine]
0.41	0.078	0.19	0.51	0.069	0.17	0.23	0.35	3.4	0.056	CS(=O)(=O)N[C@H]1CC[C@H](Nc2ncc3cc4n(c3n2)C2(CCCCC2)CNC4=O)CC1 [Compound 22, N-((1,4-trans)-4-((6′-oxo-7′,8′-dihydro-6′H-spiro[cyclohexane-1,9′-pyrazino[1′,2′:1,5]pyrrolo[2,3-d]pyrimidin]-2′-yl)amino)cyclohexyl)methanesulfonamide]
> 100	99	> 100	> 100	47	94	99	> 100	> 100	10	NS(=O)(=O)Cc1cccc(Nc2ncc3cc4n(c3n2)C2(CCCCC2)CNC4=O)c1 [Compound 43, (3-((6′-oxo-7′,8′-dihydro-6′H-spiro[cyclohexane-1,9′-pyrazino[1′,2′:1,5]pyrrolo[2,3-d]pyrimidin]-2′-yl)amino)phenyl)methanesulfonamide]
